In brackets after ≈: the same amount, converted by molar mass. Activity calls are given as the source filed them. The rule behind the calls is not given here.
Legend:
SW-620 [1] = assay: Effect on mitotic index in human SW620 cells assessed as appearance of polyploid cells at 1 uM after 48 hrs by propidium iodide staining-based FACS analysis; assay type: functional, cell-based
MCF7 = assay: Induction of p53 protein expression in human MCF7 cells at 0.07 to 10 uM after 7 hrs by fluorescent microscopy; assay type: functional, cell-based
[2] = Clearance in Wistar rat at 10 mg/kg, po after 24 hrs by LC/MS/MS analysis; assay type: ADME, organism-based; parameters: dose 10 mg/kg, route oral; details: in vivo
[3] = target: Cyclin-dependent kinase 7/ cyclin H (Homo sapiens, UniProt P50613); assay: Inhibition of CDK7/Cyclin H; assay type: protein-complex assay
Cyclin-dependent kinase 7/ cyclin H, sequence (P51946 whole entry): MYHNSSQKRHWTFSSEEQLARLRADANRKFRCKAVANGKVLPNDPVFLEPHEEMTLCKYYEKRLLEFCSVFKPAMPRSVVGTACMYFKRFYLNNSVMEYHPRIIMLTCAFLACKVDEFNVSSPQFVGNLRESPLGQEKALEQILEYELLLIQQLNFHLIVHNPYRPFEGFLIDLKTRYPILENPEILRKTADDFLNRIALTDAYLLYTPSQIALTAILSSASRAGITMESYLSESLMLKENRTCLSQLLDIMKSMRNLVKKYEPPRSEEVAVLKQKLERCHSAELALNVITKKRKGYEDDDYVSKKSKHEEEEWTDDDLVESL
Cyclin-dependent kinase 7/ cyclin H, sequence (P50613 whole entry): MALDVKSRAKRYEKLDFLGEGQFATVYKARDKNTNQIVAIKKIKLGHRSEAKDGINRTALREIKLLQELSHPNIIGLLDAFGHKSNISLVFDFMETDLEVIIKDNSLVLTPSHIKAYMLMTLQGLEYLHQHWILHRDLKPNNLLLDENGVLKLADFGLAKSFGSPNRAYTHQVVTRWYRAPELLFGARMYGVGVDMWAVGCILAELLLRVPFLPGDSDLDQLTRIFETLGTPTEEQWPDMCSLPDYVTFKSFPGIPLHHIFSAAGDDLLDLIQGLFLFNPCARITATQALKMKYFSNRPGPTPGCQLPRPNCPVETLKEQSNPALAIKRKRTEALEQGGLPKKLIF

NCI-H460 [4] = assay: Antitumor activity against human NCI-H460 cells xenografted in athymic mouse assessed as reduction in tumor volume at 75 mg/kg, po administered QD on day 1 after implantation for 5 days; assay type: functional, organism-based; parameters: dose 75 mg/kg
Cytochrome P450 2D6 = Cytochrome P450 2D6 (Homo sapiens, UniProt P10635); assay: Inhibition of human recombinant CYP2D6 at 5 uM; assay type: ADME; details: recombinant enzyme
Cytochrome P450 2D6, sequence (P10635 whole entry): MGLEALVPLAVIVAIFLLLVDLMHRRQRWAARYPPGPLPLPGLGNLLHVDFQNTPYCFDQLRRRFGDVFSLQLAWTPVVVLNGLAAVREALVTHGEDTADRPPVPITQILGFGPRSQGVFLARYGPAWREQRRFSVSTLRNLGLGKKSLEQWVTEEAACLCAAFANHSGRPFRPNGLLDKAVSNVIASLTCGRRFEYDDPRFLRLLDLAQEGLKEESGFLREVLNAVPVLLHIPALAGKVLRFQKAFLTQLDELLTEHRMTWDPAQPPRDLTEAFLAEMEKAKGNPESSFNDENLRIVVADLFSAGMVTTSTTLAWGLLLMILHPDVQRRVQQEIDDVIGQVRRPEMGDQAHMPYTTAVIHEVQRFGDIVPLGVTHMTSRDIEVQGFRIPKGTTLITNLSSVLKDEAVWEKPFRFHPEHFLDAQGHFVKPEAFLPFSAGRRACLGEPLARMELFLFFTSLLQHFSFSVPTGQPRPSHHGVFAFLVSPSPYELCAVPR

A549 = assay: Cell cycle arrest in asynchronous human A549 cells assessed as accumulation of cyclin B1-negative tetraploid cells at G1 phase at 0.5 to 2 uM after 7 hrs by FACS analysis; assay type: functional, cell-based
A2780 = assay: Cytotoxicity against human A2780 cells after 96 hrs by MTT assay; assay type: functional, cell-based; details: A2780, 96 h
[5] = Dissociation constant, pKa by pH-metric titration method; assay type: physicochemical
COLO 205 = assay: Cytotoxicity against human COLO205 cells after 96 hrs by MTT assay; assay type: functional, cell-based; details: COLO 205, 96 h
MIA PaCa-2 = assay: Cytotoxicity against human MIAPaCa2 cells after 96 hrs by MTT assay; assay type: functional, cell-based; details: MIA PaCa-2, 96 h
K562 = assay: Cytotoxicity against human K562 cells after 96 hrs by MTT assay; assay type: functional, cell-based; details: K562, 96 h
[6] = Apparent permeability across human Caco-2 cell membrane; assay type: ADME, cell-based
[7] = Antitumor activity against mouse P388D1 cells xenografted in BALB/c mouse assessed as increase in life span at 45 mg/kg, po administered BID on days 1-3 and 7-9 after tumor implantation relative to control
BXPC-3 = assay: Cytotoxicity against human BxPC3 cells after 96 hrs by MTT assay; assay type: functional, cell-based; details: BXPC-3, 96 h
NCI-H460 [8] = assay: Antitumor activity against human NCI-H460 cells xenografted in athymic mouse assessed as delay in tumor growth at 100 mg/kg, po administered QD on day 1 after implantation for 5 days; assay type: functional
HL-60 = assay: Cytotoxicity against human HL60 cells after 96 hrs by MTT assay; assay type: functional, cell-based; details: HL-60, 96 h
Cytochrome P450 1A [9] = target: T1, Cytochrome P450 1A (Homo sapiens, UniProt P04798+P05177); assay: Inhibition of CYP1A in human hepatocyte at 1 uM; assay type: ADME, cell-based; details: hepatocytes
[10] = target: Aurora kinase A (Homo sapiens) (UniProt O14965); assay: Inhibition of Aurora A phosphorylation in human A549 cells at 0.15 to 5 uM after 1 hr by Western blot analysis in presence of nocodazole and proteasome inhibitor MG132; assay type: cell-based
Aurora kinase A (Homo sapiens), sequence (O14965 whole entry): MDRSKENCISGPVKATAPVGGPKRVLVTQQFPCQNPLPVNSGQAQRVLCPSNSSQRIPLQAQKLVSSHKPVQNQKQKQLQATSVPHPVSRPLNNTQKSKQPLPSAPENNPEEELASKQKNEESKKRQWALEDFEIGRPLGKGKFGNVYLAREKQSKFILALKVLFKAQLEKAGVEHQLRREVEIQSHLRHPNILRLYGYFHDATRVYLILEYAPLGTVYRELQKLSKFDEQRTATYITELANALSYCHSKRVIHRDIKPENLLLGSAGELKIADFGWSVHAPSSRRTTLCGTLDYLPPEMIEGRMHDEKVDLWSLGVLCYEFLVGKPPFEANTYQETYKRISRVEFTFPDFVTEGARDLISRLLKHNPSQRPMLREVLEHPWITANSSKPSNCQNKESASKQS

[11] = AUC (0 to 24 hrs) in Wistar rat at 10 mg/kg, po after 24 hrs by LC/MS/MS analysis; assay type: ADME, organism-based; parameters: time < 24 hr, dose 10 mg/kg, route oral; details: plasma
Cytochrome P450 3A = Cytochrome P450 3A (Homo sapiens, UniProt P08684+P20815+Q9HB55+P24462); assay: Inhibition of CYP3A in human hepatocyte at 5 uM; assay type: ADME, cell-based; details: hepatocytes
HuP-T4 = assay: Cytotoxicity against human HUPT4 cells after 96 hrs by MTT assay; assay type: functional, cell-based; details: HuP-T4, 96 h
[12] = Fraction unbound in rat plasma by equilibrium dialysis; assay type: ADME, cell-free
[13] = target: Voltage-gated inwardly rectifying potassium channel KCNH2 (Homo sapiens, UniProt Q12809); assay: Inhibition of human ERG expressed in CHO cells up to 50 uM by patch-clamp electrophysiology; assay type: cell-based
Voltage-gated inwardly rectifying potassium channel KCNH2, sequence (Q12809 whole entry): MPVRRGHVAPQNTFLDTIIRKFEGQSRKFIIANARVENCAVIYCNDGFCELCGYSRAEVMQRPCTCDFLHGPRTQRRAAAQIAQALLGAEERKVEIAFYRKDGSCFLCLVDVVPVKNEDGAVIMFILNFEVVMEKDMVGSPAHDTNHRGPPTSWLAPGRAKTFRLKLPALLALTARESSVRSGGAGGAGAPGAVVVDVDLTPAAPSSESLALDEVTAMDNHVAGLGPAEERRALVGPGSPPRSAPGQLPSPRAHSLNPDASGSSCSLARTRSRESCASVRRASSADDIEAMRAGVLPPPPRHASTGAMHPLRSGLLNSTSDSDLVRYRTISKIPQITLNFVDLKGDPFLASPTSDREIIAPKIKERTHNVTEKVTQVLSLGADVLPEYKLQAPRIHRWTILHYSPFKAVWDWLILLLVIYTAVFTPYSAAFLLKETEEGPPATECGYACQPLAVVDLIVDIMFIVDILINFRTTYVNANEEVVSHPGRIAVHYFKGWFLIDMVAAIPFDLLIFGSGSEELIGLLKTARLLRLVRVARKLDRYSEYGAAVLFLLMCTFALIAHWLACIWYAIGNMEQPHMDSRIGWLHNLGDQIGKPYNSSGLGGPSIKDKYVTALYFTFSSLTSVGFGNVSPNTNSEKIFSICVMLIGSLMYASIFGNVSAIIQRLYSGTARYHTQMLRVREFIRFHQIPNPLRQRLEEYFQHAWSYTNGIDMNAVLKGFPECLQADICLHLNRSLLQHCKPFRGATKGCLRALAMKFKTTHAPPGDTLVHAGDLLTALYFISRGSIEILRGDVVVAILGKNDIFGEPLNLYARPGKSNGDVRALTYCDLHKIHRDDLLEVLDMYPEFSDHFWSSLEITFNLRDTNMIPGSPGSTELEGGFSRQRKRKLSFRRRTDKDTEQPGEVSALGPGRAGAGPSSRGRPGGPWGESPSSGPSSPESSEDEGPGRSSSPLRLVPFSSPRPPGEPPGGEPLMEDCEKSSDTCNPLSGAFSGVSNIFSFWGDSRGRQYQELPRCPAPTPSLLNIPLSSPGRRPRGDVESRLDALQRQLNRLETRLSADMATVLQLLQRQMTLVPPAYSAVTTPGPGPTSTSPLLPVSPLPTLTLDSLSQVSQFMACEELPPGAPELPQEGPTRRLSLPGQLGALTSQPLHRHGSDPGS

[14] = Aqueous solubility by turbidimetric analysis; assay type: physicochemical
[15] = Cytotoxicity against human MESSA cells after 96 hrs by MTT assay; assay type: functional, cell-based; details: MES-SA
Cytochrome P450 1A [16] = target: T1, Cytochrome P450 1A; assay: Inhibition of human recombinant CYP1A at 5 uM; assay type: ADME; details: recombinant enzyme
Cytochrome P450 2C9 = Cytochrome P450 2C9 (Homo sapiens, UniProt P11712); assay: Inhibition of human recombinant CYP2C9 at 5 uM; assay type: ADME; details: recombinant enzyme
Cytochrome P450 2C9, sequence (P11712 whole entry): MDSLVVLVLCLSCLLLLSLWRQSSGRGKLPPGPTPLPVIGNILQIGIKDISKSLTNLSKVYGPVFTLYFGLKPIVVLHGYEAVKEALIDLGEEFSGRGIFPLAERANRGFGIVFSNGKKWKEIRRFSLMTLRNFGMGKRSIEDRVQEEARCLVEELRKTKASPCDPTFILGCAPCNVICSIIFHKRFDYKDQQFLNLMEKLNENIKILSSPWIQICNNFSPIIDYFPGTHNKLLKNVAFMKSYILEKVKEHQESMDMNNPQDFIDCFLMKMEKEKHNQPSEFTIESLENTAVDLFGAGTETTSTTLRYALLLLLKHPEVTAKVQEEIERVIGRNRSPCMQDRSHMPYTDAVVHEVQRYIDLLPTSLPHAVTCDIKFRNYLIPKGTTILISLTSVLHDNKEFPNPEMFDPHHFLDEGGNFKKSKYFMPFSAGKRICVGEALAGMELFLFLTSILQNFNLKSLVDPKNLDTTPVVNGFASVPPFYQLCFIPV

Mus musculus = assay: Toxicity in athymic mouse xenografted with human NCI-H460 cells assessed as body weight loss at 100 mg/kg, po administered QD on day 1 after implantation for 5 days measured on day 8; assay type: organism-based; parameters: dose 100 mg/kg, route oral; details: in vivo, 120 h
SAOS-2 = assay: Cytotoxicity against human Saos2 cells after 96 hrs by MTT assay; assay type: functional, cell-based; details: SAOS-2, 96 h
[17] = Oral bioavailability in Wistar rat at 10 mg/kg after 24 hrs by LC/MS/MS analysis; assay type: ADME, organism-based; details: in vivo
HT-29 = assay: Cytotoxicity against human HT-29 cells after 96 hrs by MTT assay; assay type: functional, cell-based; details: HT-29, 96 h
SW-620 [18] = assay: Induction of apoptosis in human SW620 cells assessed as early apoptotic cells at 1 uM after 48 hrs by TUNEL assay; assay type: functional
NCI-H460 [19] = assay: Antitumor activity against human NCI-H460 cells xenografted in athymic mouse assessed as reduction in tumor volume at 100 mg/kg, po administered QD on day 1 after implantation for 5 days; assay type: functional, organism-based; parameters: dose 100 mg/kg
[20] = Inhibition of CAMK2
[21] = Inhibition of PKA
[22] = Octanol-aqueous buffer partition coefficient, log D at pH 7.4 by shake-flask method; assay type: physicochemical
HeLa [23] = assay: Cytotoxicity against human HeLa cells after 96 hrs by MTT assay; assay type: functional, cell-based
NCI-H460 [24] = assay: Cytotoxicity against human NCI-H460 cells after 96 hrs by MTT assay; assay type: functional, cell-based; details: NCI-H460, 96 h
[25] = Inhibition of PKC
HeLa [26] = assay: Inhibition of Aurora kinase in human HeLa cells assessed as reduction of histone H3 serine-10 phosphorylation at 1 uM after 7 hrs immunofluorescence microscopy; assay type: cell-based
[27] = Inhibition of Aurora kinase in human A549 cells assessed as concentration required for half-maximal inhibition of histone H3 serine-10 phosphorylation after 7 hrs immunofluorescence microscopy; assay type: cell-based; details: A549, 7 h
SW-620 [28] = assay: Induction of apoptosis in human SW620 cells assessed as late apoptotic cells at 1 uM after 48 hrs by TUNEL assay; assay type: functional
[29] = Oral bioavailability in mouse up to 100 mg/kg; assay type: ADME, organism-based; details: in vivo
NCI-H460 [30] = assay: Antitumor activity against human NCI-H460 cells xenografted in athymic mouse assessed as reduction in mean tumor volume at 100 mg/kg, po administered QD on day 1 after implantation for 5 days measured on day 6 relative to control; assay type: functional; parameters: scale not given: the % may be the effect or the level left
NCI-H460 [31] = assay: Antitumor activity against human NCI-H460 cells xenografted in athymic mouse assessed as delay in tumor growth at 75 mg/kg, po administered QD on day 1 after implantation for 5 days; assay type: functional
HCT-116 = assay: Cytotoxicity against human HCT116 cells after 96 hrs by MTT assay; assay type: functional, cell-based; details: HCT-116, 96 h

Cc1nc(N)sc1-c1ccnc(Nc2ccc(N3CCOCC3)cc2)n1 [CYC-116]
Activity (SW-620 [1]): Active | Activity (MCF7): inactive | CL/F [2]: 2 L/h/kg | Ki [3]: > 10 µM | Activity (NCI-H460 [4]): Active | inhibition (INH) (Cytochrome P450 2D6): Active | Activity (A549): Active | IC50 (A2780): 0.17 µM | pKa [5]: 4.4 | IC50 (COLO 205): 0.241 µM | IC50 (MIA PaCa-2): 0.278 µM | IC50 (K562): 1.38 µM | Papp [6]: 470 nm/s | Activity [7]: 172% | IC50 (BXPC-3): 1.63 µM | Activity (NCI-H460 [8]): 5.8 days | IC50 (HL-60): 0.372 µM | inhibition (INH) (Cytochrome P450 1A [9]): Not Active | inhibition [10]: Active | AUC(0-t) at 24 h [11]: 13.6 µM·h | inhibition (INH) (Cytochrome P450 3A): Active | IC50 (HuP-T4): 0.775 µM | fraction unbound [12]: 0.93 | inhibition (INH) [13]: Not Active | solubility kinetic [14]: 10.5 µM (≈ 3.87 µg/mL) | IC50 [15]: 0.09 µM | inhibition (INH) (Cytochrome P450 1A [16]): Active | inhibition (INH) (Cytochrome P450 2C9): Active | Activity (Mus musculus): Toxic | IC50 (SAOS-2): 0.11 µM | bioavailability [17]: 38% | IC50 (HT-29): 0.725 µM | Activity (SW-620 [18]): 64.8% | Activity (NCI-H460 [19]): Active | Ki [20]: > 10 µM | Ki [21]: > 10 µM | logD [22]: 2.74 | IC50 (HeLa [23]): 0.59 µM | IC50 (NCI-H460 [24]): 0.681 µM | Ki [25]: > 10 µM | inhibition (HeLa [26]): Active | IC50 [27]: 0.48 µM | Activity (SW-620 [28]): 34.7% | bioavailability [29]: ≤ 61% | Activity (NCI-H460 [30]): 40% | Activity (NCI-H460 [31]): 2.3 days | IC50 (HCT-116): 0.34 µM

Source: ChEMBL document CHEMBL1155519, “Discovery of N-phenyl-4-(thiazol-5-yl)pyrimidin-2-amine aurora kinase inhibitors” (J Med Chem, 2010)
